# Key:
# Type in all cases: in vivo
# [1] = system: Spodoptera exigua (lesser army worm - larvae); assay: Residual test, lesser army worm - larvae (SP), Cotton leaf; conditions: 72 h, 3 days, read-out: SP grading of mortality
# Experimental: (§1) The activity of the Product was determined using a variety of insect pests. The Product was used in the form of liquid preparations containing from 100 to 500 parts per million (ppm) by weight of the Product. The preparations were made by dissolving the Product in acetone and diluting the solutions with water containing 0.1% by weight of a wetting agent sold under the trade name "SYNPERONIC" NX until the liquid preparations contained the required concentration of the Product. "SYNPERONIC" is a Registered Trade Mark.
# (§2) The test procedure adopted with regard to each pest was basically the same and comprised supporting a number of the pests on a medium which was usually a host plant or a foodstuff on which the pests feed, and treating either or both the pests and the medium with the preparations. The mortality of the pests was then assessed at periods usually varying from one to seven days after the treatment.
# (§3) The results of the tests are given in Table III for each of the Products, at the rate in parts per million given in the second column as a grading of mortality designated as A, B or C wherein A indicates 80-100% mortality or knockdown (70-100% for Meloidogyne incognita), B indicates 50-79% mortality knockdown or knockdown (50-69% for Meloidogyne incognita) and C indicates less than 50% mortality or knockdown.
# (§4) In Table III the pest organism used is designated by a letter code and the pests species, the support medium or food, and the type and duration of test is given in Table II.
# (lesser army worm - larvae)
# [2] = system: Nilaparvata lugens (brown plant hopper - nymphs); assay: Contact test, brown plant hopper - nymphs (NL), Rice plant; conditions: 72 h, 3 days, read-out: NL grading of mortality
# Experimental: as §1, with “Mark. The test procedure adopted with regard to each pest was basically the same and comprised supporting a number of the pests on a medium which was usually a host plant or a foodstuff on which the pests feed, and treating either or both the pests and the medium with the preparations. The mortality of the pests was then assessed at periods usually varying from one to seven days after the treatment.” for “Mark.”
# [3] = system: Meloidogyne incognita (Tomato root knot eelworm - larvae); assay: Residual test, Tomato root knot eelworm - larvae (MI), Semi in-vitro; conditions: 168 h, application rate is half that recorded, 7 days, read-out: MI grading of mortality; for mortality at 250 µg/mL: rate column 500 ppm
# [4] = system: Musca domestica (houseflies - adults); assay: Knockdown test, houseflies - adults (MD/KD), Cotton wool/sugar; conditions: 4 hours, read-out: MD/KD grading of knockdown
# Experimental: as §1, §2
# In the case of the species Musca domestica (housefly), an additional assessment to determine the knockdown effect of the compounds was performed.
# as §4
# Myzus persicae (aphids) = assay: Contact test, aphids (MP), Chinese Cabbage leaf; conditions: 72 h, 3 days, read-out: MP grading of mortality
# Experimental: The activity of the Product was determined using a variety of insect pests. The Product was used in the form of liquid preparations containing from 100 to 500 parts per million (ppm) by weight of the Product. The preparations were made by dissolving the Product in acetone and diluting the solutions with water containing 0.1% by weight of a wetting agent sold under the trade name "SYNPERONIC" NX until the liquid preparations contained the required concentration of the Product. "SYNPERONIC" is a Registered Trade Mark. The test procedure adopted with regard to each pest was basically the same and comprised supporting a number of the pests on a medium which was usually a host plant or a foodstuff on which the pests feed, and treating either or both the pests and the medium with the preparations. The mortality of the pests was then assessed at periods usually varying from one to seven days after the treatment. […] In Table III the pest organism used is designated by a letter code and the pests species, the support medium or food, and the type and duration of test is given in Table II.
# [5] = system: Blattella germanica (cockroach nymphs); assay: Residual test, cockroach nymphs (BG), Plastic pot; conditions: 72 h, 3 days, read-out: BG grading of mortality
# Experimental: (§5) The activity of the Product was determined using a variety of insect pests. The Product was used in the form of liquid preparations containing from 100 to 500 parts per million (ppm) by weight of the Product. The preparations were made by dissolving the Product in acetone and diluting the solutions with water containing 0.1% by weight of a wetting agent sold under the trade name "SYNPERONIC" NX until the liquid preparations contained the required concentration of the Product. "SYNPERONIC" is a Registered Trade Mark. The test procedure adopted with regard to each pest was basically the same and comprised supporting a number of the pests on a medium which was usually a host plant or a foodstuff on which the pests feed, and treating either or both the pests and the medium with the preparations. The mortality of the pests was then assessed at periods usually varying from one to seven days after the treatment.
# [6] = system: Tetranychus urticae (spider mites - ova); assay: Contact test, spider mites - ova (TUe), French bean leaf; conditions: 144 h, 6 days, read-out: TUE grading of mortality
# Experimental: as §5
# [7] = system: Diabrotica balteata (rootworm larvae); assay: Residual test, rootworm larvae (DB), Filter paper/maize seed; conditions: 72 h, 3 days, read-out: DB grading of mortality
# Experimental: as §5
# [8] = system: Musca domestica (houseflies - adults); assay: Contact test, houseflies - adults (MD), Cotton wool/sugar; conditions: 24 h, 1 day, read-out: MD grading of mortality
# Experimental: as §5
# [9] = system: Heliothis virescens (tobacco budworm - larvae); assay: Residual test, tobacco budworm - larvae (HV), Cotton leaf; conditions: 72 h, read-out: HV grading of mortality
# Experimental: as §1, §2, §3, §4
# (tobacco budworm - larvae)
# [10] = system: Tetranychus urticae (spider mites - adult); assay: Contact test, spider mites - adult (TUa), French bean leaf; conditions: 72 h, 3 days, read-out: TUA grading of mortality
# Experimental: as §5
structure (smiles),measurement,setting,value
"Fc1ccc(C(CCCc2cccc(Oc3ccccc3)c2)C(F)(F)F)c(F)c1OC(F)(F)F (racemic) [Compound 72, 1,1,1-Trifluoro-2-(2,4-difluoro-3-trifluoromethoxyphenyl)-5-(3-phenoxyphenyl)-pentane]",mortality at 500 ppm,[1],80 to 100%
same,mortality at 500 ppm,[2],50 to 79%
same,mortality at 250 µg/mL,[3],< 50%
same,pest or weed control at 500 ppm,[4],< 50%
same,mortality at 500 ppm,Myzus persicae (aphids),80 to 100%
same,mortality at 500 ppm,[5],80 to 100%
same,mortality at 500 ppm,[6],< 50%
same,mortality at 500 ppm,[7],80 to 100%
same,mortality at 500 ppm,[8],< 50%
same,mortality at 500 ppm,[9],80 to 100%
same,mortality at 500 ppm,[10],50 to 79%
"CCOc1ccc(C(CCCc2cccc(Oc3ccccc3)c2)C(F)(F)Cl)cc1 (racemic) [Compound 69, 1,1-Difluoro-1-chloro-2-(4-ethoxyphenyl)-5-(3-phenoxyphenyl)pentane]",mortality at 500 ppm,[1],80 to 100%
same,mortality at 500 ppm,[2],80 to 100%
same,mortality at 250 µg/mL,[3],< 50%
same,pest or weed control at 500 ppm,[4],< 50%
same,mortality at 500 ppm,Myzus persicae (aphids),80 to 100%
same,mortality at 500 ppm,[5],80 to 100%
same,mortality at 500 ppm,[6],< 50%
same,mortality at 500 ppm,[7],80 to 100%
same,mortality at 500 ppm,[8],80 to 100%
same,mortality at 500 ppm,[9],80 to 100%
same,mortality at 500 ppm,[10],< 50%
"COCc1ccc(C(CCCc2cccc(Oc3ccccc3)c2)C(F)(F)F)cc1 (racemic) [Compound 45, 1,1,1-Trifluoro-2-(4-methoxymethylphenyl)-5-(3-phenoxyphenyl)pentane]",mortality at 500 ppm,[1],80 to 100%
same,mortality at 500 ppm,[2],80 to 100%
same,mortality at 250 µg/mL,[3],< 50%
same,pest or weed control at 500 ppm,[4],80 to 100%
same,mortality at 500 ppm,Myzus persicae (aphids),< 50%
same,mortality at 500 ppm,[5],< 50%
same,mortality at 500 ppm,[6],< 50%
same,mortality at 500 ppm,[7],80 to 100%
same,mortality at 500 ppm,[8],80 to 100%
same,mortality at 500 ppm,[9],80 to 100%
same,mortality at 500 ppm,[10],< 50%
"CCOc1ccc(C(=CC=Cc2cccc(Oc3ccccc3)n2)C(F)(F)F)cc1 [Compound 100, 1,1,1-Trifluoro-2-(4-ethoxyphenyl)-5-(6-phenoxypyrid-2-yl)penta-2,4-diene]",mortality at 500 ppm,[1],< 50%
same,mortality at 500 ppm,[2],50 to 79%
same,mortality at 250 µg/mL,[3],< 50%
same,pest or weed control at 500 ppm,[4],50 to 79%
same,mortality at 500 ppm,Myzus persicae (aphids),< 50%
same,mortality at 500 ppm,[5],< 50%
same,mortality at 500 ppm,[6],< 50%
same,mortality at 500 ppm,[7],< 50%
same,mortality at 500 ppm,[8],< 50%
same,mortality at 500 ppm,[9],< 50%
same,mortality at 500 ppm,[10],< 50%
"FC(F)(F)C(=CCCc1cccc(Oc2ccccc2)c1)c1ccc2c(c1)CCC2 [Compound 48, 1,1,1-Trifluoro-2-(5-indanyl)-5-(3-phenoxyphenyl)pent-2-ene]",mortality at 250 ppm,[1]; 250 ppm,< 50%
same,mortality at 250 ppm,[2]; 250 ppm,< 50%
same,mortality at 125 µg/mL,[3]; rate 250 ppm,< 50%
same,pest or weed control at 250 ppm,[4]; 250 ppm,< 50%
same,mortality at 250 ppm,Myzus persicae (aphids); 250 ppm,< 50%
same,mortality at 250 ppm,[5]; 250 ppm,50 to 79%
same,mortality at 250 ppm,[6]; 250 ppm,< 50%
same,mortality at 250 ppm,[7]; 250 ppm,50 to 79%
same,mortality at 250 ppm,[8]; 250 ppm,< 50%
same,mortality at 250 ppm,[9],< 50%
same,mortality at 250 ppm,[10]; 250 ppm,< 50%
"CCOc1ccc(C(=CCCc2cccc(Oc3ccccc3)c2)C(F)(F)F)cc1F [Compound 50, 1,1,1-Trifluoro-2-(3-fluoro-4-ethoxyphenyl)-5-(3-phenoxyphenyl)-pent-2-ene]",mortality at 450 ppm,[1]; 450 ppm,80 to 100%
same,mortality at 450 ppm,[2]; 450 ppm,< 50%
same,mortality at 225 µg/mL,[3]; rate column 450 ppm,< 50%
same,pest or weed control at 450 ppm,[4]; 450 ppm,80 to 100%
same,mortality at 450 ppm,Myzus persicae (aphids); 450 ppm,80 to 100%
same,mortality at 450 ppm,[5]; 450 ppm,80 to 100%
same,mortality at 450 ppm,[6]; 450 ppm,< 50%
same,mortality at 450 ppm,[7]; 450 ppm,80 to 100%
same,mortality at 450 ppm,[8]; 450 ppm,80 to 100%
same,mortality at 450 ppm,[9],80 to 100%
same,mortality at 450 ppm,[10]; 450 ppm,< 50%
"Fc1cc(C(=CC=Cc2cccc(Oc3ccccc3)c2)C(F)(F)F)cc(F)c1OC(F)(F)F [Compound 75, 1,1,1-Trifluoro-2-(3,5-difluoro-4-trifluoromethoxyphenyl)-5-(3-phenoxyphenyl)penta-2,4-diene]",mortality at 500 ppm,[1],< 50%
same,mortality at 500 ppm,[2],< 50%
same,mortality at 250 µg/mL,[3],< 50%
same,pest or weed control at 500 ppm,[4],< 50%
same,mortality at 500 ppm,Myzus persicae (aphids),< 50%
same,mortality at 500 ppm,[5],< 50%
same,mortality at 500 ppm,[6],< 50%
same,mortality at 500 ppm,[7],< 50%
same,mortality at 500 ppm,[8],< 50%
same,mortality at 500 ppm,[9],< 50%
same,mortality at 500 ppm,[10],< 50%
"Fc1ccc(C=CC=C(c2ccc(OC(F)(F)F)cc2)C(F)(F)Cl)cc1Oc1ccccc1 [Compound 76, 1,1-Difluoro-1-chloro-2-(4-trifluoromethoxyphenyl)-5-(4-fluoro-3-phenoxyphenyl)penta-2,4-diene]",mortality at 500 ppm,[1],< 50%
same,mortality at 500 ppm,[2],80 to 100%
same,mortality at 250 µg/mL,[3],< 50%
same,pest or weed control at 500 ppm,[4],< 50%
same,mortality at 500 ppm,Myzus persicae (aphids),< 50%
same,mortality at 500 ppm,[5],< 50%
same,mortality at 500 ppm,[6],< 50%
same,mortality at 500 ppm,[7],80 to 100%
same,mortality at 500 ppm,[8],< 50%
same,mortality at 500 ppm,[9],< 50%
same,mortality at 500 ppm,[10],< 50%
"OC(CCCc1cccc(Oc2ccccc2)c1)(c1ccc(OC(F)(F)F)cc1)C(F)(F)F (racemic) [Compound 59, 1,1,1-trifluoro-2-hydroxy-2-(4-trifluoromethoxyphenyl)-5-(3-phenoxyphenyl)pentane]",mortality at 500 ppm,[1],< 50%
same,mortality at 500 ppm,[2],80 to 100%
same,mortality at 250 µg/mL,[3],< 50%
same,pest or weed control at 500 ppm,[4],< 50%
same,mortality at 500 ppm,Myzus persicae (aphids),< 50%
same,mortality at 500 ppm,[5],< 50%
same,mortality at 500 ppm,[6],< 50%
same,mortality at 500 ppm,[7],80 to 100%
same,mortality at 500 ppm,[8],< 50%
same,mortality at 500 ppm,[9],< 50%
same,mortality at 500 ppm,[10],80 to 100%
"CC1(C)Oc2ccc(C(CCCc3cccc(Oc4ccccc4)c3)C(F)(F)F)cc2O1 (centres unmarked) [Compound 58, 1,1,1-Trifluoro-2-[3,4-(dimethylmethylenedioxy)phenyl]-5-(3-phenoxyphenyl)pentane]",mortality at 500 ppm,[1],50 to 79%
same,mortality at 500 ppm,[2],80 to 100%
same,mortality at 250 µg/mL,[3],< 50%
same,pest or weed control at 500 ppm,[4],80 to 100%
same,mortality at 500 ppm,Myzus persicae (aphids),50 to 79%
same,mortality at 500 ppm,[5],80 to 100%
same,mortality at 500 ppm,[6],80 to 100%
same,mortality at 500 ppm,[7],80 to 100%
same,mortality at 500 ppm,[8],80 to 100%
same,mortality at 500 ppm,[9],< 50%
same,mortality at 500 ppm,[10],< 50%
